Measured values: patent US20250387403A1, “SELECTIVE SIGMA-2 RECEPTOR LIGANDS AS MODULATORS OF TMEM97” (BOARD OF REGENTS, THE UNIVERSITY OF TEXAS SYSTEM, priority 2022, published 2025)

Key:
[1] = tested on: integrated stress response; assay: Integrated stress response; assay type: cell-based
[2] = tested on: spared nerve injury (SNI) model; assay: Spared nerve injury (SNI) neuropathic pain model; assay type: in vivo, mice
[3] = tested on: neurite outgrowth; assay: Neurite outgrowth; assay type: cell-based

## OCCCN1CC[C@@H]2C[C@H]1c1cc(-c3ccc(C(F)(F)F)cc3)ccc12 [FEM-1689, 3-((1S,5R)-8-(4-(Trifluoromethyl)phenyl)-1,3,4,5-tetrahydro-2H-1,5-methanobenzo[c]azepin-2-yl) propan-1-ol]
[1]
  effect on the integrated stress response: inhibits the integrated stress response
[2]; global σ2R/TMEM97 knockout mouse
  analgesic effect after SNI: fails to produce an analgesic effect
[2]; wild-type male and female mice
  mechanical hypersensitivity after SNI: reverses mechanical hypersensitivity
[3]
  effect on neurite outgrowth: promotes neurite outgrowth
